Assay [1] concerns the target T1, CCR4 (Homo sapiens, UniProt P51679).
T1 construct: CEM Cells Endogenous Express CCR4; endogenous in cells; host or cells: CEM cells
T1 sequence (P51679 1-360): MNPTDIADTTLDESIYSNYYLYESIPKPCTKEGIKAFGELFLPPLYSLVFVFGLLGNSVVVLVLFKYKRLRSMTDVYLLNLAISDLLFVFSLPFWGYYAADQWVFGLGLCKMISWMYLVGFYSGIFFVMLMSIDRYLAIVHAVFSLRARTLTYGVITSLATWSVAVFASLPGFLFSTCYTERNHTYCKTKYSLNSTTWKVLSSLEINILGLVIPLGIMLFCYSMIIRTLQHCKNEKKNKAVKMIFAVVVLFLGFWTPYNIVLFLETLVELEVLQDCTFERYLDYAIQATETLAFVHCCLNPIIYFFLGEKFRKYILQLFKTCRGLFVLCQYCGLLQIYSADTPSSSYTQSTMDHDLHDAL
Description: CEM cell chemotaxis (migration) assay to CCL22 (MDC) in HBSS buffer with 0.1% BSA. The following applies: CEM cells in HBSS with 0.1% BSA; recombinant human CCL22 0.1 nM; 37° C. 60 minutes. Format: cell-based. From the text:
CEM Cells Endogenous Express CCR4
A chemotaxis assay can be used to determine the efficacy of potential receptor antagonists at blocking the migration mediated through chemokine receptors, such as CCR4. This assay is routinely performed using the ChemoTX® microchamber system with a 5 μm pore-sized polycarbonate membrane.
HBSS: CEM Cells are collected by centrifugation at 400×g at room temperature, then suspended at 5 million/ml in Hanks' Balanced Salt Solution (HBSS) buffer with 0.1% BSA. The compound being tested is serially diluted from a maximum final concentration of 10 μM (or an equivalent volume of its solvent (DMSO)) and is then added to the cell/buffer mixture. Separately, recombinant human CCL22 (MDC) at its EC50 concentration (0.1 nM) is placed in the lower wells of the ChemoTX® plate. The 5-μm (pore size) polycarbonate membrane was placed onto the plate, and 20 μL of the cell/compound mixture is transferred onto each well of the membrane. The plates are incubated at 37° C. for 60 minutes, after which the polycarbonate membranes are removed and 5 μl of the DNA-intercalating dye CyQUANT (Invitrogen, Carlsbad, CA) is added to the lower wells. The amount of fluorescence, corresponding to the number of migrated cells, is measured using a Spectrafluor Plus plate reader (TECAN, San Jose, CA).

For assay [2], the target named is T1, CCR4. Description: CEM cell chemotaxis (migration) assay to CCL22 (MDC) in 100% Fetal Bovine Serum (FBS). Format: cell-based. The conditions noted are these: CEM cells in 100% FBS with 1% HEPEs; recombinant human CCL22 0.1 nM; 37° C. 60 minutes. The method, boiled down: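 Endogenously CCR4-expressing CEM cells in 100% FBS with 1% HEPES were preincubated with serially diluted compound (top final 10 μM) and allowed to migrate through 5 μm polycarbonate membranes toward 0.1 nM human CCL22 (EC50) for 60 min at 37 °C. Migrated cells were quantified by CyQUANT fluorescence.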

One may read the IC50 as the point on the concentration scale where inhibition reaches its midpoint. Regarding `C[C@H](Nc1nc(N2CCN(C(=O)[C@H]3CCC(=O)N3)CC2)ncc1Cl)c1cc(F)c(Cl)cc1Cl` [Example 1.110], the IC50 in assay [1] and in assay [2] was over 1 µM each time.

As to `C[C@@H](Nc1nc(N2CCN(S(=O)(=O)CCN(C)C)CC2)ncc1Cl)c1ccc(Cl)cc1Cl` [Example 1.016], the values for the IC50 in assay [1] and in assay [2] were under 0.1 µM and 0.1 to 1 µM, respectively.

`C[C@@H](Nc1nc(N2CCN(C(=O)[C@@H]3CCCN3C(=O)OC(C)(C)C)CC2)ncc1Cl)c1ccc(Cl)cc1Cl` [Example 1.050]: the values for the IC50 in assay [1] and in assay [2] were 0.1 to 1 µM and over 1 µM, respectively.

Consider `C[C@@H]1CN(c2ncc(Cl)c(N[C@H](C)c3ccc(Cl)cc3Cl)n2)[C@@H](C)CN1C(=O)[C@H]1CCCN1CC(=O)O` [Example 1.019], for which the IC50 in assay [1] and in assay [2] was 0.1 to 1 µM throughout.

With `C[C@H](Nc1nc(N2CCN(C(=O)[C@@H]3CCC(=O)N3)CC2)ncc1Cl)c1ccc(Cl)cc1Cl` [Example 1.253], the IC50 in assay [1] and in assay [2] was over 1 µM each time.

`C[C@@H](Nc1nc(N2CCC(CO)(NC(=O)[C@H]3CCCN3)CC2)ncc1Cl)c1ccc(Cl)cc1Cl` [Example 1.003]: the IC50 in assay [1] and in assay [2] was under 0.1 µM throughout.

On to `Cc1nc(N2CCN(C(=O)[C@H]3CCCN3)CC2)nc(N[C@H](C)c2ccc(Cl)cc2Cl)c1Cl` [Example 1.049], for which the IC50 in assay [1] and in assay [2] was under 0.1 µM each time.

As for `C[C@@H]1CN(c2ncc(Cl)c(N[C@H](C)c3ccc(Cl)cc3Cl)n2)CCN1C(=O)[C@H]1CCCN1` [Example 1.042], the half-maximal inhibitory concentration (IC50) in assay [1] and in assay [2] was under 0.1 µM each time.

As for `C[C@@H](Nc1nc(N2CCN(C(=O)[C@H]3CCS(=O)(=O)N3)CC2)ncc1Cl)c1ccc(Cl)cc1Cl` [Example 1.079], the IC50 in assay [1] and in assay [2] was under 0.1 µM throughout.

Take `C[C@@H](Nc1nc(N2CCC(NC(=O)[C@@H]3CNCCO3)CC2)ncc1Cl)c1ccc(Cl)cc1Cl` [Example 1.131]: the IC50 in assay [1] was 0.1 to 1 µM; in assay [2], over 1 µM.

Turning to `C[C@H](Nc1nc(N2CCN(C(=O)[C@H]3CCC(=O)N3)CC2)ncc1Cl)c1ccc(Cl)cc1Cl` [Example 1.252], the IC50 in assay [1] and in assay [2] was over 1 µM each time.

On to `C[C@@H]1CN(c2ncc(Cl)c(N[C@H](C)c3ccc(Cl)cc3Cl)n2)CCN1C(=O)c1c[nH]c(=O)n(C)c1=O` [Example 1.018], for which the IC50 in assay [1] and in assay [2] was over 1 µM in each case.

Take `C[C@@H]1CN(C(=O)[C@H]2CCCN2)CCN1c1ncc(Cl)c(N[C@H](C)c2ccc(Cl)cc2Cl)n1` [Example 1.038]: the IC50 in assay [1] and in assay [2] was under 0.1 µM throughout.

`C[C@@H](Nc1nc(N2CCN(C(=O)[C@H]3CCC(=O)N3)CC2)ncc1Cl)c1ccccn1` [Example 1.256]: the IC50 in assay [1] and in assay [2] was over 1 µM throughout.

As to `C[C@@H](Nc1nc(N2CC3CC2CN3C(=O)[C@H]2CCCN2)ncc1Cl)c1ccc(Cl)cc1Cl` (stereo partly shown) [Example 1.031], the IC50 in assay [1] and in assay [2] was 0.1 to 1 µM each time.

As to `C[C@@H](Nc1nc(N2CC[C@H](NC(=O)[C@@H]3CCC(=O)N3)[C@@H](O)C2)ncc1Cl)c1ccc(Cl)cc1Cl` [Example 1.254], the IC50 in assay [1] was over 1 µM; in assay [2], under 0.1 µM.

For `C[C@@H](Nc1nc(C2=CCN(C(=O)CN(C)C)CC2)ncc1Cl)c1ccc(Cl)cc1Cl` [Example 1.020], the IC50 in assay [1] and in assay [2] was under 0.1 µM in each case.

As to `C[C@@H](Nc1nc(N2CCN(C(=O)[C@@H]3NC(=O)[C@@H]4C[C@@H]43)CC2)ncc1Cl)c1ccc(Cl)cc1Cl` [Example 1.251], the IC50 in assay [1] and in assay [2] was under 0.1 µM each time.

For the molecule `Cc1cnc(N2CCN(C(=O)[C@H]3CCCN3)CC2)nc1N[C@H](C)c1ccc(Cl)cc1Cl` [Example 1.071], the IC50 in assay [1] and in assay [2] was under 0.1 µM each time.

`C[C@@H](Nc1nc(N2CCC(NC(=O)[C@@H]3CCN(C)C3)CC2)ncc1Cl)c1ccc(Cl)cc1Cl` [Example 1.067]: the IC50 is under 0.1 µM in assay [1] and 0.1 to 1 µM in assay [2].

As to `C[C@@H](Nc1nc(N2CCN(C(=O)N(C)CCN(C)C)CC2)ncc1Cl)c1ccc(Cl)cc1Cl` [Example 1.072], the IC50 in assay [1] and in assay [2] was under 0.1 µM throughout.

Regarding `CNC1CCN(C(=O)N2CCN(c3ncc(Cl)c(N[C@H](C)c4ccc(Cl)cc4Cl)n3)CC2)C1` (stereo partly shown) [Example 1.005], the IC50 in assay [1] and in assay [2] was under 0.1 µM throughout.

For `C[C@@H](Nc1nc(N2CCN(C(=O)[C@H]3CCNC3)CC2)ncc1Cl)c1ccc(Cl)cc1Cl` [Example 1.150], the half-inhibitory concentration (IC50) in assay [1] and in assay [2] was under 0.1 µM each time.

For the molecule `CC(Nc1nc(N2CCN(C(=O)[C@H]3CCC(=O)N3)CC2)ncc1Cl)c1c(F)cc(Cl)cc1F` (stereo partly shown) [Example 1.076], the IC50 in assay [1] and in assay [2] was under 0.1 µM in each case.

Consider `C[C@@H](Nc1nc(N2CCN(C(=O)C3(C)CNC3)CC2)ncc1Cl)c1ccc(Cl)cc1Cl` [Example 1.037], for which the IC50 in assay [1] and in assay [2] was 0.1 to 1 µM throughout.

Turning to `C[C@@H](Nc1nc(C2=CCN([C@H]3CCCN(CCC(N)=O)C3)CC2)ncc1Cl)c1ccc(Cl)cc1Cl` [Example 1.056], the IC50 in assay [1] and in assay [2] was under 0.1 µM each time.

With `C[C@@H](Nc1nc(N2CCC(C(=O)NCCN(C)C)CC2)ncc1Cl)c1ccc(Cl)cc1Cl` [Example 1.026], the IC50 in assay [1] and in assay [2] was under 0.1 µM throughout.

As for `C[C@@H](Nc1nc(N2CCN(C(=O)[C@@H]3CCCN3)CC2)ncc1Cl)c1ccc(Cl)cc1Cl` [Example 1.052], the IC50 in assay [1] and in assay [2] was under 0.1 µM each time.

With `C[C@@H](Nc1nc(N2CCN(C(=O)[C@@H]3CCN(C)C3)CC2)ncc1Cl)c1ccc(Cl)cc1Cl` [Example 1.066], the IC50 in assay [1] and in assay [2] was under 0.1 µM throughout.

Regarding `C[C@@H](Nc1nc(N2CCC(C(=O)N3CC[C@H](O)[C@@H](N(C)C)C3)CC2)ncc1Cl)c1ccc(Cl)cc1Cl` [Example 1.133], the IC50 in assay [1] was 0.1 to 1 µM; in assay [2], over 1 µM.

As to `C[C@@H](Nc1nc(C2=CCN(C(=O)[C@H]3CCCN3)CC2)ncc1Cl)c1ccc(Cl)cc1Cl` [Example 1.027], the IC50 in assay [1] and in assay [2] was under 0.1 µM throughout.

Turning to `C[C@@H](Nc1nc(N2CCN(C(=O)[C@H]3CCCN3C(=O)OC(C)(C)C)CC2)ncc1Cl)c1ccc(Cl)cc1Cl` [Example 1.051], the IC50 in assay [1] and in assay [2] was 0.1 to 1 µM in each case.

Regarding `C[C@@H](Nc1nc(N2CCN(C3CCCNC3)CC2)ncc1Cl)c1ccc(Cl)cc1Cl` (stereo partly shown) [Example 1.055], the IC50 in assay [1] and in assay [2] was under 0.1 µM in each case.

For `Cc1nc(N2CCN(C(=O)[C@H]3CCC(=O)N3)CC2)nc(N[C@H](C)c2cc(F)c(Cl)cc2Cl)c1Cl` [Example 1.258], the IC50 in assay [1] and in assay [2] was under 0.1 µM throughout.

Take `C[C@@H](Nc1nc(N2CCN(C(=O)[C@H]3CCCN3)CC2)ncc1Cl)c1ccc(Cl)cc1Cl` [Example 1.053]: the IC50 in assay [1] and in assay [2] was under 0.1 µM in each case.

Regarding `C[C@@H](Nc1nc(N2CCC(NC(=O)[C@H]3CCN(C)C3)CC2)ncc1Cl)c1ccc(Cl)cc1Cl` [Example 1.060], the IC50 in assay [1] and in assay [2] was under 0.1 µM each time.

Consider `C[C@@H](Nc1nc(N2CCN(C(=O)[C@H]3CCN(C(N)=O)C3)CC2)ncc1Cl)c1ccc(Cl)cc1Cl` [Example 1.134], for which the IC50 in assay [1] and in assay [2] was under 0.1 µM each time.

For the molecule `C[C@@H](Nc1nc(N2CCN(C(=O)[C@H]3CCCCN3)CC2)ncc1Cl)c1ccc(Cl)cc1Cl` [Example 1.044], the IC50 in assay [1] and in assay [2] was under 0.1 µM throughout.

Consider `C[C@@H](Nc1nc(N2CCN(C(=O)[C@H]3CCCN3C3CC(C)(C(=O)O)C3)CC2)ncc1Cl)c1ccc(Cl)cc1Cl` (stereo partly shown) [Example 1.152], for which the IC50 is 0.1 to 1 µM in assay [1] and over 1 µM in assay [2].

Take `C[C@@H](Nc1nc(N2CCN(C(=O)[C@H]3C[C@H](O)CN3)CC2)ncc1Cl)c1ccc(Cl)cc1Cl` [Example 1.023]: the IC50 in assay [1] and in assay [2] was under 0.1 µM in each case.

In the case of `C[C@@H](Nc1nc(N2CCC(C3CCCNC3)CC2)ncc1Cl)c1ccc(Cl)cc1Cl` (stereo partly shown) [Example 1.045], the IC50 in assay [1] and in assay [2] was under 0.1 µM each time.

Values taken from patent US20230382894A1, “CCR4 ANTAGONISTS” (CHEMOCENTRYX, INC., priority 2022, published 2023).
